Results: patent US20070160725A1, “Use of extracts and compounds of allium-genus plants as preservatives in the food and agri-food industries” (MOUSALA, S., L., priority 2004, published 2007)
Where two headings read alike, the source gives them in different places.

Tests used:
Test in all cases: agar diffusion, inhibition halo
Format in all cases: cell-based
[1] = test system: Geotrichum candidum CECT 1902
Method: (§1) In order to evaluate the antimicrobial activity the agar diffusion technique with cellulose discs of 6 mm in diameter impregnated with the different active ingredient testing doses was used.
(§2) Antifungal capacity was assessed against suspensions of […], harvested from pure cultures of the selected molds and against suspensions of 10^7 cells/ml for the case of yeasts. The culture medium used was the 2% Sabouraud-glucose medium (Merck).
(§3) After incubating the culture dishes inoculated with the different organisms at the corresponding temperatures, the microbial inhibition halos that appeared were measured, and said measurement includes the 6 mm diameter of the cellulose discs.

[2] = test system: Penicillium italicum CECT 2294
Method: as §1, §2, §3

[3] = test system: Rhizopus stolonifer CECT 2344
Method: as §1, §2, §3

[4] = test system: Trichoderma aureoviride CECT 20102
Method: as §1, §2, §3

[5] = 4000 ppm (active ingredient, dose in ppm)
[6] = 6000 ppm (active ingredient, dose in ppm)
[7] = Penicillium italicum, CECT2294, read-out: inhibition halo diameter
[8] = Penicillium italicum, CECT2294, 1000 ppm of commercial product, read-out: inhibition halo diameter
[9] = Penicillium italicum, CECT2294, 2000 ppm of commercial product, read-out: inhibition halo diameter
[10] = Penicillium italicum, CECT2294, 4000 ppm of commercial product, read-out: inhibition halo diameter

Row | Compound | inhibition halo diameter ([1]; 1000 ppm of commercial product) | inhibition halo diameter ([1]; 2000 ppm of commercial product) | inhibition halo diameter ([1]; 4000 ppm of commercial product) | zone of inhibition at 1000 µg/mL [2, 8] | zone of inhibition at 2000 µg/mL [2, 9] | zone of inhibition at 4000 µg/mL [2, 10] | inhibition halo diameter ([4]; 1000 ppm of commercial product) | inhibition halo diameter ([4]; 2000 ppm of commercial product) | inhibition halo diameter ([4]; 4000 ppm of commercial product) | other results
1 | c1ccc(-c2ccccc2)cc1 [Biphenyl] | – | – | – | – | – | – | – | – | – | inhibition halo diameter [1, 5]: 0 mm; inhibition halo diameter [1, 6]: 0 mm; zone of inhibition at 4000 ppm [2, 7]: 7 mm; zone of inhibition at 6000 ppm [2, 7]: 8 mm; inhibition halo diameter [3, 5]: 0 mm; inhibition halo diameter [3, 6]: 0 mm; inhibition halo diameter [4, 5]: 0 mm; inhibition halo diameter [4, 6]: 0 mm
2 | C=CCOC(Cn1ccnc1)c1ccc(Cl)cc1Cl (centres unmarked) [Imazalil] | 20 mm | 23 mm | 26 mm | 46 mm | 47 mm | 50 mm | 20 mm | 25 mm | 31 mm | –
3 | CCCN(CCOc1c(Cl)cc(Cl)cc1Cl)C(=O)n1ccnc1 [Prochloraz] | 0 mm | 0 mm | 0 mm | – | – | – | 8 mm | 11 mm | 12 mm | zone of inhibition at 1000 µg/mL [2, 7]: 31 mm; zone of inhibition at 2000 µg/mL [2, 7]: 35 mm; zone of inhibition at 4000 µg/mL [2, 7]: 35 mm
4 | c1ccc2[nH]c(-c3cscn3)nc2c1 [Thiabendazole] | 0 mm | 0 mm | 0 mm | > 40 mm | > 40 mm | > 40 mm | 24 mm | 26 mm | 26 mm | –
5 | Guazatine | 27 mm | 30 mm | 35 mm | – | – | – | 25 mm | 30 mm | 35 mm | inhibition halo diameter ([2]; 1000 ppm of commercial product): 10 mm; inhibition halo diameter ([2]; 2000 ppm of commercial product): 12 mm; inhibition halo diameter ([2]; 4000 ppm of commercial product): 15 mm
